Test results published in patent publication US20140336248A1, “THERAPEUTIC COMPOSITIONS AND RELATED METHODS OF USE” (priority 2011, published 2014).

How the values were obtained:
ICR mice [1] = assay: Tolerability 5.0, 10.0 mg/kg orally in 1% ethanol/4% propylene glycol/5% Solutol HS 15 (Example J); type: in vivo, mouse
Method: Fompositions for oral administration were prepared as follows: A) 1.0 mg/mL composition: 5.05 mg of salinomycin sodium was added to 50 μL ethanol and vortexed for 1 minute to yield a clear solution. 200 μL of propylene glycol was then added and vortexed for 1 minute, yielding a clear solution. To this solution was next added 250 μL Solutol® HS 15, with vortexing for 1 minute and sonicating for 1 minute, to yield a clear solution.
(§1) Six male ICR mice (Sino-British SIPPR/BK Lab Animal Ltd, Shanghai, China) were assigned to control and treatment groups. […] The individual animal number marked on the tail, and study number comprised a unique identification for each animal. Animal identification was verified during the course of the study. The animals were housed two per cage in stainless steel suspended cage in an environmentally controlled room. SLACOM (Rodent Diet #20110615029, Shanghai SLAC Laboratory Animal Co. Ltd.) was available ad libitum. Temperature and humidity were monitored and recorded twice daily.
Each composition and the vehicle (control) were administered once daily to each of two mice via oral gavage for 5 consecutive days. The dose levels for the treated groups and the control group are in the below table. Individual doses were based on the most recent body weight.
(§2) Body weights for all animals were measured and recorded at receipt, prior to randomization, and once daily during the study. Body weight change was calculated for mean value of animals relative to Day 1 mean body weight value.

ICR mice [2] = assay: Tolerability IV in 10% ethanol/10% Solutol HS 15, 5 days (Example K); type: in vivo, mouse; details: for Clinical observations: post dosage
Method: Injectable salinomycin compositions were prepared as follows: 0.6 mg/mL stock solution: 1.2 mg of salinomycin sodium was added to 200 μL ethanol and vortexed for 2 minutes and sonicated for 30 seconds to yield a clear solution. To this solution was next added 200 μL Solutol® HS 15, with vortexing for 2 minutes. Finally, 1.6 mL water was added to produce a clear stock solution of 0.6 mg/mL salinomycin sodium.
as §1
Each composition and the vehicle (control) were administered once daily to each of two mice via intravenous bolus injection for 5 consecutive days. The dose levels for the treated groups and the control group are in the below table. Individual doses were based on the most recent body weight.
as §2

ICR mice [3] = assay: Tolerability 0.1, 0.3, 1.0, 3.0 mg/kg IV in 10% ethanol/10% Solutol HS 15, 4 days (Example M); type: in vivo, mouse
Method: as §1, with “Using the techniques described above in Example B, an aqueous vehicle comprising 10% ethanol (v/v) and 10% Solutol® HS 15 (v/v) was prepared. An appropriate amount of salinomycin sodium was dissolved into the vehicle to make solutions having concentrations of 0.02, 0.06, 0.2, and 0.3 mg/mL. Ten male ICR” for “Six male ICR”, “animal number was marked on” for “animal number marked on”
(§3) Each composition and the vehicle (control) were administered once daily to each of two mice via intravenous bolus injection for 4 consecutive days. The dose levels for the treated groups and the control group are in the below table. Individual doses were based on the most recent body weight.
as §2

ICR mice [4] = assay: Tolerability 0.1, 0.3, 1.0 mg/kg IV in 3% propylene glycol/10% Solutol HS 15, 4 days (Example O); type: in vivo, mouse; details: for Body weight: FIG. 8
Method: as §1, with “Using the techniques described above in Example A, an aqueous vehicle comprising 3% propylene glycol (v/v) and 10% Solutol® HS 15 (v/v) was prepared. An appropriate amount of salinomycin sodium was dissolved into the vehicle to make solutions having concentrations of 0.02, 0.06, and 0.2 mg/mL. Eight male ICR” for “Six male ICR”, “animal number was marked on” for “animal number marked on”
as §3, §2

[5] = type: physicochemical
Text: The precipitate observed in Batch A in Example S was isolated and subjected to XRPD analysis. Comparative evaluation was done as shown in FIG. 11 using (1) API used in the formulation (Batch C, manufactured by Neuland Laboratories Ltd., India) and (2) API from a different lot (Batch D).

SMILES: CC[C@@H](C(=O)[C@@H](C)[C@@H](O)[C@H](C)[C@@H]1O[C@@H]([C@@H](CC)C(=O)O)CC[C@@H]1C)[C@H]1O[C@]2(C=C[C@@H](O)[C@]3(CC[C@@](C)([C@H]4CC[C@](O)(CC)[C@H](C)O4)O3)O2)[C@H](C)C[C@@H]1C [salinomycin sodium]
- Abnormalities detected (ICR mice [1]; 5, 10 mg/kg oral gavage once daily 5 days, 1% ethanol/4% propylene glycol/5% Solutol HS 15): no abnormalities
- Body weight change relative to Day 1 (ICR mice [1]; 5, 10 mg/kg oral gavage once daily 5 days, 1% ethanol/4% propylene glycol/5% Solutol HS 15, FIG. 3): all groups added weight
- Maximum oral tolerated dosage (ICR mice [1]; oral gavage once daily 5 days, male ICR mice): at least 10 mg/kg
- Clinical observations (ICR mice [2]; 0.1 mg/kg IV once daily 5 days): decreased activity (e.g., more time spent laying prostrate), rapid breathing, and partially-closed eyelids
- Clinical observations (ICR mice [2]; 0.3 mg/kg IV once daily 5 days): decreased activity levels, partially-closed eyelids, and skin cold to the touch
- Body weight change relative to Day 1 (ICR mice [2]; 0.1, 0.3 mg/kg IV once daily 5 days, FIG. 4): all groups added weight
- Clinical observations (ICR mice [3]; 0.1 mg/kg IV once daily 4 days): no abnormalities
- Clinical observations (ICR mice [3]; 0.3 mg/kg IV once daily 4 days, dissipated after 3 hours, no abnormalities on days 2, 3, 4): skin cold to the touch after the first administration
- Clinical observations (ICR mice [3]; 1.0 mg/kg IV once daily 4 days, after the first administration, no abnormalities on days 2, 3, 4): decreased activity, decreased grasping, and skin cold to the touch
- Mortality (ICR mice [3]; 3.0 mg/kg IV): died shortly after administration
- Body weight (ICR mice [3]; each group surviving administration, IV once daily 4 days, FIG. 6): relatively stable
- Clinical observations (ICR mice [4]; 0.1 mg/kg IV once daily 4 days): no abnormalities
- Clinical observations (ICR mice [4]; 0.3 mg/kg IV once daily 4 days, after initial administration, no abnormalities on days 2, 3, 4): slight decrease in activity
- Body weight (ICR mice [4]; 1 mg/kg IV once daily 4 days): decreased steadily
- Clinical observations (ICR mice [4]; 1.0 mg/kg IV once daily 4 days, no abnormalities on days 2, 3, 4): decreased activity and leaning
- Body weight (ICR mice [4]; 0.1 and 0.3 mg/kg IV once daily 4 days): remained relatively stable
- Solubility (conclusion) [5]: inadequate solubility
- Solid form by XRPD ([5]; API used in the formulation along with API of a different lot): amorphous nature
